Reference: the C3SDB collision cross section collection
Where “and” joins values, the source holds several entries; their conditions need not be identical. Identical values can stand only once. Counter-ions that a name gives are not always drawn.

details: [M+H-H2O]+; instrument: TW; calibrated with polyalanine and drug standards

Structure (SMILES) | collision cross section (N2)
COC(=O)C1=C(C)NC(C)=C(C(=O)OC)C1c1ccccc1[N+](=O)[O-] [NIFEDIPINE] | 169.4 Å²
COc1cc([C@@H]2c3cc4c(cc3[C@H](O)[C@H]3COC(=O)[C@@H]23)OCO4)cc(OC)c1OC [PICROPODOPHYLLIN] | 190.9 Å²
C=C1C(=O)O[C@@H]2[C@H]3O[C@]3(C)CC/C=C(\C)CC[C@@H]12 [PARTHENOLIDE] | 150.7 Å²
NCCc1c[nH]c2ccccc12 [TRYPTAMINE] | 124.4 Å²
CCC(C)(C)C(=O)O[C@H]1C[C@@H](C)C=C2C=C[C@H](C)[C@H](CC[C@@H]3C[C@@H](O)CC(=O)O3)[C@H]21 [SIMVASTATIN] | 199.6 Å²

same assay, conditions: [M+H]+; instrument: TW; calibrated with polyalanine and drug standards

Structure (SMILES) | collision cross section (N2)
O=C([O-])Cc1cnc[nH]1 [IMIDAZOL-4-YLACETIC ACID SODIUM SALT] | 120.7 Å²
OC(CCN1CCCCC1)(c1ccccc1)C1CC2C=CC1C2 (centres undefined) [BIPERIDEN] | 175.7 Å²
CC(C)C1CCC(C(=O)N[C@H](Cc2ccccc2)C(=O)O)CC1 (some centres undefined) [NATEGLINIDE] | 178.6 Å²
CN/C(=C\[N+](=O)[O-])NCCSCc1csc(CN(C)C)n1 [NIZATIDINE] | 169.1 Å²
COc1ccc2c(c1O)-c1c(OC)c(OC)cc3c1[C@H](C2)N(C)CC3 [S-ISOCORYDINE (+)] | 181.9 Å²
CC(C)(CO)[C@@H](O)C(=O)NCCCO [DEXPANTHENOL] | 144.1 Å²
Nc1ncnc2c1ncn2[C@@H]1O[C@H](CO)[C@@H](O)[C@@H]1O [VIDARABINE] | 156.4 Å²
CCOc1cccc(C(=O)c2ccc(O)c(O)c2O)c1 [3,4-DIDESMETHYL-5-DESHYDROXY-3'-ETHOXYSCLEROIN] | 160.3 Å²
O=C(O)c1cc(O)c(O)c(O)c1 [GALLIC ACID] | 130.9 Å²
C[C@H]1C[C@@H]2[C@H]([C@@H](O)C[C@@]3(C)[C@H]2CC[C@]3(O)C(=O)CO)[C@@]2(C)C=CC(=O)C=C12 [METHYLPREDNISOLONE] | 187.7 Å²
COc1ccc(-c2oc3ccccc3c(=O)c2O)cc1OC [3-HYDROXY-3',4'-DIMETHOXYFLAVONE] | 164.1 Å²
Nc1nnc(-c2cccc(Cl)c2Cl)c(N)n1 [LAMOTRIGINE] | 150.6 Å²
O=C(O)c1cn(C2CC2)c2cc(N3CCNCC3)c(F)cc2c1=O [CIPROFLOXACIN] | 185.3 Å² and 173.3 Å²
CCOC(=O)C1=C[C@@H](OC(CC)CC)[C@H](NC(C)=O)[C@@H](N)C1 [OSELTAMIVIR] | 180.7 Å²
Nc1ccc(S(=O)(=O)Nc2ccccn2)cc1 [SULFAPYRIDINE] | 151.6 Å²
COc1ccc2cc1Oc1ccc(cc1)C[C@H]1c3cc(c(OC)cc3CCN1C)Oc1c(OC)c(OC)cc3c1[C@H](C2)N(C)CC3 [TETRANDRINE] | 245.3 Å²
CC(=O)c1cc2ccccc2oc1=O [3-ACETYLCOUMARIN] | 131.6 Å²
COC1=CC(=O)C(O)=C/C1=C\C=C\c1ccccc1 [OBTUSAQUINONE] | 155.1 Å²
COc1ccc2cc([C@H](C)CO)ccc2c1 [NAPROXOL] | 140 Å²
COc1ccc([C@@H](C)C(=O)c2ccc(O)cc2O)cc1 [ANGOLENSIN (R)] | 162 Å²

Structure (SMILES) | collision cross section (N2)
Cc1cc(O)c(C=O)c2c1C(=O)Oc1c(COC(=O)/C=C/C(=O)O)c(O)c(C(=O)O)c(C)c1O2 [FUMARPROTOCETRARIC ACID] | 204.5 Å²
CC[C@H]1OC(=O)[C@H](C)C(=O)[C@H](C)[C@@H](O[C@@H]2O[C@H](C)C[C@H](N(C)C)[C@H]2O)[C@](C)(OC)C[C@@H](C)C(=O)[C@H](C)[C@H]2N(CCCCn3cnc(-c4cccnc4)c3)C(=O)O[C@]12C [TELITHROMYCIN] | 269.7 Å²
COc1cc(-c2coc3cc(OC)c(OC)c(OC)c3c2=O)cc(OC)c1OC [IRIGENIN TRIMETHYL ETHER] | 195.4 Å²
CC(C)c1c(CN(C)C(C)Cc2ccccc2)n(C)n(-c2ccccc2)c1=O (centres undefined) [FAMPROFAZONE] | 190.9 Å²
C[C@H]1C[C@H]2[C@@H]3CCC4=CC(=O)C=C[C@]4(C)[C@@]3(F)[C@@H](O)C[C@]2(C)[C@@]1(O)C(=O)CO [BETAMETHASONE] | 186.7 Å²
O=c1cc(-c2ccccc2)oc2c(O)c(O)ccc12 [7,8-DIHYDROXYFLAVONE] | 152 Å²
O=C(CCNNC(=O)c1ccncc1)NCc1ccccc1 [NIALAMIDE] | 174.3 Å²
O=C(O)c1cccnc1 [NIACIN] | 120.3 Å²
COc1c(-c2coc3cc4c(cc3c2=O)CC(O)C(C)(C)O4)ccc2c1C=CC(C)(C)O2 (centres undefined) [MUNDULONE] | 210.9 Å²
Cc1nccc2c1[nH]c1ccccc12 [HARMANE] | 136.6 Å²
COc1cc(S(C)=O)ccc1-c1nc2ncccc2[nH]1 (centres undefined) [SULMAZOLE] | 166.4 Å²
O=[N+]([O-])O[C@H]1CO[C@H]2[C@@H]1OC[C@H]2O[N+](=O)[O-] [ISOSORBIDE DINITRATE] | 151.6 Å²
O=C(O)CCNC(=O)c1ccccc1 [BETAMIPRON] | 138.7 Å²
COc1ccc2c(c1)OC/C(=C\c1ccc(OC)c(O)c1)C2=O [SAPPANONE A DIMETHYL ETHER] | 170.3 Å²
COc1cc(NS(=O)(=O)c2ccc(N)cc2)nc(OC)n1 [SULFADIMETHOXINE] | 167.7 Å²
COC1=CC(=O)C(C(=O)c2ccccc2)=CC1=O [2-BENZOYL-5-METHOXYBENZOQUINONE] | 145.4 Å²
COc1ccc2c(c1)O[C@@H]1COc3cc(OC)c(OC)cc3[C@@H]1C2=O [MUNDOSERONE] | 175.1 Å²
COc1cc2ccc(=O)oc2cc1O [SCOPOLETIN] | 133.6 Å²
CC(C)(Oc1ccc(Cl)cc1)C(=O)O [CLOFIBRIC ACID] | 146.6 Å²
Nc1nc(=S)c2ncn([C@@H]3O[C@H](CO)[C@@H](O)[C@H]3O)c2[nH]1 [THIOGUANOSINE] | 164 Å²

same assay, conditions: [M+Na]+; instrument: TW; calibrated with polyalanine and drug standards

Structure (SMILES) | collision cross section (N2)
COC(=O)CC[C@@H](C)[C@H]1CC[C@H]2[C@@H]3[C@H](O)C[C@@H]4C[C@H](O)CC[C@]4(C)[C@H]3C[C@H](O)[C@]12C [CHOLIC ACID, METHYL ESTER] | 198.1 Å²
C[C@H]1[C@H](C)CC[C@]2(C(=O)O)CC[C@]3(C)C(=CC[C@@H]4[C@@]5(C)C[C@@H](O)[C@H](O)[C@@](C)(CO)[C@@H]5CC[C@]43C)[C@H]12 [ASIATIC ACID] | 233.5 Å²
OC[C@@H](O)[C@@H](O[C@@H]1O[C@H](CO)[C@@H](O)[C@H](O)[C@H]1O)[C@H](O)[C@@H](O)CO [GLUCITOL-4-GUCOPYANOSIDE] | 174.3 Å²
C=C[C@@]1(C)CC(=O)[C@]2(O)[C@@]3(C)[C@@H](O)CCC(C)(C)[C@@H]3[C@H](O)[C@H](OC(C)=O)[C@@]2(C)O1 [COLFORSIN] | 191.9 Å²
